# From PMC6934184, “Selective DNA-PKcs inhibition extends the therapeutic index of localized radiotherapy and chemotherapy” (The Journal of Clinical Investigation, 2019)
# Target: T1, MARK2 (Homo sapiens, UniProt Q7KZI7)
# T1 construct: purchased Thermo Fisher Scientific (Life Technologies) SelectScreen
# Experiment: SelectScreen Z'LYTE
# Assay type: biochemical
# Outline: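 Percent values come from Thermo SelectScreen profiling of NU5455, combining activity and binding assays. CSF1R was run in Z'LYTE format at Km app ATP, and CAMK1 in Adapta format with ATP listed at 10.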
# T1 sequence (Q7KZI7 whole entry): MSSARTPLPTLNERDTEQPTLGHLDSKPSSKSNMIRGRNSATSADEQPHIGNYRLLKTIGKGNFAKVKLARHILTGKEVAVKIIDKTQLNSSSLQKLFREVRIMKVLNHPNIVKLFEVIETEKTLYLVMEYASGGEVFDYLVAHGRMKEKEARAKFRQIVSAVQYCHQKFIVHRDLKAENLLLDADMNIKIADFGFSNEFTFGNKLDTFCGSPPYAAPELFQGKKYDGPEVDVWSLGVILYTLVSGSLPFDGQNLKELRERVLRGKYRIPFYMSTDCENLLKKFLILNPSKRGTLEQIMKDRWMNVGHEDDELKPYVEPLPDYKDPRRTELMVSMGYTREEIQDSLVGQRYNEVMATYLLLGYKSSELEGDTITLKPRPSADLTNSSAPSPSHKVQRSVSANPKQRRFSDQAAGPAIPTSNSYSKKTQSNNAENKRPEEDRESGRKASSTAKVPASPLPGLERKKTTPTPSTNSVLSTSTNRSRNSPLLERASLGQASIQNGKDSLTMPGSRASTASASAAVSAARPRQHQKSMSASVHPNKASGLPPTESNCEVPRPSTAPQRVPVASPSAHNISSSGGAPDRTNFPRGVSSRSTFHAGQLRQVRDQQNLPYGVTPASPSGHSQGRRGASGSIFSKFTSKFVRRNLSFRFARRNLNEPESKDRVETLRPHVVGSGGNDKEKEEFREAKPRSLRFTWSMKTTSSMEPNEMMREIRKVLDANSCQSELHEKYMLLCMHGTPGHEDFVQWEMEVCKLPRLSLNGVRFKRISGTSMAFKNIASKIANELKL
smiles,measurement,value
CN(C(=O)CN1CCOCC1)c1ccc2sc3c(-c4cccc5c(=O)cc(N6CC7CCC(C6)O7)oc45)cccc3c2c1 [NU5455],inhibition at 1 µM,0.1%
